Test results as given in PMC11845477, “Exploring the principles behind antibiotics with limited resistance” (Nature Communications, 2025).
Like-named read-outs stand apart in the source and are kept apart here.

Legend:
[1] = tested on: E. coli ATCC 25922 (SEN) and E. coli NCTC13846 (MDR); experiment: Adaptive laboratory evolution (ALE), relative MIC of evolved lines; assay type: cell-based, Escherichia coli
How it was run: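 Ten parallel populations per antibiotic–ancestor pair were evolved in MHB at 37 °C, starting near 50% growth-inhibiting drug. Every 72 h they were passaged into 0.5–2.5× increasing concentrations, keeping the highest-drug well with OD600 > 0.2.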

[2] = tested on: A. baumannii ATCC 17978 (SEN) and A. baumannii ATCC BAA-1605 (MDR); experiment: Frequency-of-resistance (FoR) assay, relative MIC of mutants; assay type: cell-based, Acinetobacter baumannii; details: for Relative MIC: Acinetobacter baumannii ATCC 17978 (AB-SEN); for MIC: Acinetobacter baumannii, read-out: MIC of evolved line, Acinetobacter baumannii ATCC 17978 (AB-SEN)
How it was run: (§1)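 Relative MIC is mutant MIC divided by ancestor MIC. Mutants: ten colonies from the highest-concentration plate after ~10^10 MHB-grown cells spent 48 h at 37 °C on antibiotic agar (triplicates, susceptible-range concentrations).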

[3] = tested on: K. pneumoniae ATCC 10031 (SEN) and K. pneumoniae ATCC 700603 (MDR); experiment: as above; assay type: cell-based, Klebsiella pneumoniae; details: for Relative MIC: Klebsiella pneumoniae ATCC 10031 (KP-SEN); for MIC: Klebsiella pneumoniae, read-out: MIC of evolved line, Klebsiella pneumoniae ATCC 10031 (KP-SEN)
How it was run: as §1

[4] = EC-SEN (Escherichia coli ATCC 25922), evolved line 1 adapted to the named antibiotic
[5] = EC-SEN (Escherichia coli ATCC 25922), evolved line 2 adapted to the named antibiotic
[6] = EC-SEN (Escherichia coli ATCC 25922), evolved line 4
[7] = EC-SEN (Escherichia coli ATCC 25922), evolved line 5
[8] = EC-SEN (Escherichia coli ATCC 25922), evolved line 5 adapted to the named antibiotic
[9] = EC-SEN (Escherichia coli ATCC 25922), evolved line 7
[10] = EC-SEN (Escherichia coli ATCC 25922), evolved line 8
[11] = EC-SEN (Escherichia coli ATCC 25922), evolved line 10
[12] = EC-SEN, Escherichia coli ATCC 25922, evolved line 1
[13] = EC-SEN, Escherichia coli ATCC 25922, evolved line 2

O=c1ccc2ncc(=O)n3c2n1C[C@H]3CN1CCC(NCc2cc3c(cn2)OCCC3)CC1 [Gepotidacin]
Relative MIC ([1]; EC-MDR (Escherichia coli NCTC 13846), evolved line 2): 32
Relative MIC (log10) ([1]; EC-MDR (Escherichia coli NCTC 13846), evolved line 2 adapted to the named antibiotic): 1.505
Relative MIC ([1]; EC-MDR (Escherichia coli NCTC 13846), evolved line 4): 16
Relative MIC (log10) ([1]; EC-MDR (Escherichia coli NCTC 13846), evolved line 4 adapted to the named antibiotic): 1.204
Relative MIC (log10) ([1]; EC-MDR (Escherichia coli NCTC 13846), evolved line 6 adapted to the named antibiotic): 1.505
Relative MIC (log10) ([1]; EC-MDR (Escherichia coli NCTC 13846), evolved line 7 adapted to the named antibiotic): 1.505
Relative MIC ([1]; EC-MDR (Escherichia coli NCTC 13846), evolved line 8): 16
Relative MIC ([1]; EC-MDR (Escherichia coli NCTC 13846), evolved line 9): 32
Relative MIC (log10) ([1]; EC-MDR (Escherichia coli NCTC 13846), evolved line 9 adapted to the named antibiotic): 1.505
Relative MIC ([1]; EC-MDR (Escherichia coli NCTC 13846), evolved line 10): 32
Relative MIC ([1]; EC-MDR, Escherichia coli NCTC 13846, evolved line 1 versus ancestor): 16
Relative MIC ([1]; EC-MDR, Escherichia coli NCTC 13846, evolved line 2 versus ancestor): 32
Relative MIC ([1]; EC-MDR, Escherichia coli NCTC 13846, evolved line 3 versus ancestor): 8
Relative MIC ([1]; EC-MDR, Escherichia coli NCTC 13846, evolved line 4 versus ancestor): 16
Relative MIC ([1]; EC-MDR, Escherichia coli NCTC 13846, evolved line 6 versus ancestor): 32
Relative MIC ([1]; EC-MDR, Escherichia coli NCTC 13846, evolved line 7 versus ancestor): 32
Relative MIC ([1]; EC-MDR, Escherichia coli NCTC 13846, evolved line 8 versus ancestor): 16
Relative MIC ([1]; EC-MDR, Escherichia coli NCTC 13846, evolved line 9 versus ancestor): 32
Relative MIC ([1]; EC-MDR, Escherichia coli NCTC 13846, evolved line 10 versus ancestor): 32
Relative MIC ([1]; EC-MDR, Escherichia coli NCTC 13846, evolved line 1): 16
Relative MIC ([1]; EC-MDR, Escherichia coli NCTC 13846, evolved line 3): 8
Relative MIC ([1]; EC-MDR, Escherichia coli NCTC 13846, evolved line 6): 32
Relative MIC ([1]; EC-MDR, Escherichia coli NCTC 13846, evolved line 7): 32
Relative MIC (log10) [1, 4]: 2.107
Relative MIC (log10) [1, 5]: 1.806
Relative MIC [1, 6]: 128
Relative MIC (log10) ([1]; EC-SEN (Escherichia coli ATCC 25922), evolved line 4 adapted to the named antibiotic): 2.107
Relative MIC [1, 7]: 128
Relative MIC (log10) [1, 8]: 2.107
Relative MIC [1, 9]: 64
Relative MIC [1, 10]: 4
Relative MIC [1, 11]: 128
Relative MIC ([1]; EC-SEN, Escherichia coli ATCC 25922, evolved line 1 versus ancestor): 128
Relative MIC ([1]; EC-SEN, Escherichia coli ATCC 25922, evolved line 2 versus ancestor): 64
Relative MIC ([1]; EC-SEN, Escherichia coli ATCC 25922, evolved line 4 versus ancestor): 128
Relative MIC ([1]; EC-SEN, Escherichia coli ATCC 25922, evolved line 5 versus ancestor): 128
Relative MIC ([1]; EC-SEN, Escherichia coli ATCC 25922, evolved line 7 versus ancestor): 64
Relative MIC ([1]; EC-SEN, Escherichia coli ATCC 25922, evolved line 8 versus ancestor): 4
Relative MIC ([1]; EC-SEN, Escherichia coli ATCC 25922, evolved line 10 versus ancestor): 128
Relative MIC [1, 12]: 128
Relative MIC [1, 13]: 64
Relative MIC ([2]; evolved line 1 versus ancestor): 16
Relative MIC ([2]; evolved line 2 versus ancestor): 4
Relative MIC ([2]; evolved line 3 versus ancestor): 16
MIC ([2]; evolved line 2): 8 mg/L
Relative MIC ([3]; evolved line 1 versus ancestor): 1
Relative MIC ([3]; evolved line 2 versus ancestor): 1
Relative MIC ([3]; evolved line 3 versus ancestor): 1
MIC ([3]; evolved line 1): 0.0625 mg/L
MIC ([3]; evolved line 2): 0.0625 mg/L
MIC ([3]; evolved line 3): 0.0625 mg/L

CN(C)c1cc(CNCC(C)(C)C)c(O)c2c1C[C@H]1C[C@H]3[C@H](N(C)C)C(O)=C(C(N)=O)C(=O)[C@@]3(O)C(O)=C1C2=O [Omadacycline]
Relative MIC (log10) [1, 4]: 0.9031
Relative MIC (log10) [1, 5]: 0.9031
Relative MIC ([1]; EC-SEN (Escherichia coli ATCC 25922), evolved line 3): 4
Relative MIC [1, 6]: 8
Relative MIC [1, 7]: 8
Relative MIC (log10) [1, 8]: 0.9031
Relative MIC ([1]; EC-SEN (Escherichia coli ATCC 25922), evolved line 6): 4
Relative MIC (log10) ([1]; EC-SEN (Escherichia coli ATCC 25922), evolved line 6 adapted to the named antibiotic): 0.6021
Relative MIC [1, 9]: 2
Relative MIC [1, 10]: 8
Relative MIC ([1]; EC-SEN (Escherichia coli ATCC 25922), evolved line 9): 8
Relative MIC (log10) ([1]; EC-SEN (Escherichia coli ATCC 25922), evolved line 9 adapted to the named antibiotic): 0.9031
Relative MIC [1, 11]: 4
Relative MIC ([1]; EC-SEN ATCC 25922, evolved line 1, evolved line vs ancestor): 8
Relative MIC ([1]; EC-SEN ATCC 25922, evolved line 2, evolved line vs ancestor): 8
Relative MIC ([1]; EC-SEN ATCC 25922, evolved line 3, evolved line vs ancestor): 4
Relative MIC ([1]; EC-SEN ATCC 25922, evolved line 4, evolved line vs ancestor): 8
Relative MIC ([1]; EC-SEN ATCC 25922, evolved line 5, evolved line vs ancestor): 8
Relative MIC ([1]; EC-SEN ATCC 25922, evolved line 6, evolved line vs ancestor): 4
Relative MIC ([1]; EC-SEN ATCC 25922, evolved line 7, evolved line vs ancestor): 2
Relative MIC ([1]; EC-SEN ATCC 25922, evolved line 8, evolved line vs ancestor): 8
Relative MIC ([1]; EC-SEN ATCC 25922, evolved line 9, evolved line vs ancestor): 8
Relative MIC ([1]; EC-SEN ATCC 25922, evolved line 10, evolved line vs ancestor): 4
Relative MIC [1, 12]: 8
Relative MIC [1, 13]: 8
Relative MIC ([2]; evolved line 1 versus ancestor): 8
Relative MIC ([2]; evolved line 2 versus ancestor): 8
Relative MIC ([2]; evolved line 3 versus ancestor): 8
MIC ([2]; evolved line 1): 4 mg/L
MIC ([2]; evolved line 2): 4 mg/L
MIC ([2]; evolved line 3): 4 mg/L
Relative MIC ([3]; evolved line 1 versus ancestor): 32
Relative MIC ([3]; evolved line 2 versus ancestor): 16
Relative MIC ([3]; evolved line 3 versus ancestor): 16
MIC ([3]; evolved line 1): 32 mg/L
MIC ([3]; evolved line 2): 16 mg/L
MIC ([3]; evolved line 3): 16 mg/L
